In patent US7531695B2, “Therapeutic agents for the treatment of cancer, metabolic diseases and skin disorders” (Auspex Pharmaceutical, Inc, priority 2004, dated 2009):
Where a name gives a salt, the structure may show the parent alone.

Key:
[1] = system: A375 cells; test: A375 Tumor Cell Proliferation Assay; assay type: cell-based; details: Homo sapiens, A-375, read-out: LC50 (50% Lethal Concentration)
Method: (§1) A375 cells (5,000 per well in 90% RPMI-1640 plus 10% Fetal Bovine Serum [FBS]) were pre-incubated in a black clear bottom 96-well plate in an atmosphere of 5% CO2 at 37° C. for 24 hours. Stock solutions of compounds in DMSO were diluted using a buffer and dilutions were added to each well. […] The final assay pH was 7.4. The cells were incubated in RPMI-1640 with each compound for an additional 72 to 168 hours. Alamar Blue was added and the plate was incubated for an additional 12 hours. Fluorescence intensity was measured using a Gemini plate reader with excitation at 530 nm and emission at 590 nm. A decrease of 50 percent or more (≧50%) in fluorescence intensity relative to vehicle treated controls is an indication of significant anti-cancer activity.

[2] = system: human head and neck squamous cell carcinoma cells (SCC 103); test: SCC103 Tumor Cell Proliferation Assay; assay type: cell-based; details: SCC 103 cells; compared to Bexarotene; FIG. 1
Method: as §1, with “SCC 103” for “A375”, “(15,000” for “(5,000”, “EMEM medium” for “RPMI-1640”, “EMEM medium” for “RPMI-1640 with each compound”, “72” for “72 to 168”, “Blue (10% of culture volume)” for “Blue”

COc1cccc2c1C(=O)c1c(O)c3c(c(O)c1C2=O)C[C@@](O)(C(=O)CO)C[C@@H]3O[C@H]1C[C@H](N)[C@H](O)[C@H](C)O1 [Doxorubicin] was tested, and the CC50 [1] was 8 µM.

With C=C(c1ccc(C2=C(O)CCCC2=O)cc1)c1cc2c(cc1C)C(C)(C)CCC2(C)C [Example 5, 5-3-Hydroxy-2-{4-[1-(3,5,5,8,8-pentamethyl-5,6,7,8-tetrahydro-naphthalen-2-yl)-vinyl]-phenyl}-cyclohex-2-enone] the growth inhibitory effect [2] was “enhanced activity”.

For Cc1cc2c(cc1C(=O)c1ccc(C3=C(O)CCCC3=O)cc1)C(C)(C)CCC2(C)C [Example 8, 3-Hydroxy-2-[4(3,5,5,8,8-pentamethyl-5,6,7,8-tetrahydronaphthalene-2-carbonyl)-phenyl]-cyclohex-2-enone potassium salt], the growth inhibitory effect [2] was “enhanced activity”.
